Experimental data from PubChem BioAssay (NCI).
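Cells were grown in 96-well plates and exposed to each compound for 48 hours at five concentrations; endpoints were interpolated linearly between bracketing concentrations, or set to the highest concentration if not reached. The concentration for full growth arrest is given as TGI.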

What was measured:
Experiment in all cases: NCI tumour cell line growth inhibition, 48 h
CCRF-CEM leukemia = tested on: CCRF-CEM leukemia
LOX IMVI melanoma = tested on: LOX IMVI melanoma
OVCAR-8 ovarian = tested on: OVCAR-8 ovarian
RPMI-8226 leukemia = tested on: RPMI-8226 leukemia
SF-295 CNS = tested on: SF-295 CNS
SF-539 CNS = tested on: SF-539 CNS
SK-MEL-2 melanoma = tested on: SK-MEL-2 melanoma
TK-10 renal = tested on: TK-10 renal
MDA-MB-231 breast = tested on: MDA-MB-231 breast
EKVX NSCLC = tested on: EKVX NSCLC

Structure (SMILES)	TGI (CCRF-CEM leukemia) [µM]	TGI (LOX IMVI melanoma) [µM]	TGI (OVCAR-8 ovarian) [µM]	TGI (RPMI-8226 leukemia) [µM]	TGI (SF-295 CNS) [µM]	TGI (SF-539 CNS) [µM]	TGI (SK-MEL-2 melanoma) [µM]	TGI (TK-10 renal) [µM]	TGI (MDA-MB-231 breast) [µM]	TGI (EKVX NSCLC) [µM]
O=C(c1ccc(Cl)cc1)N(C(=S)N1CCN(c2ccccn2)CC1)c1ccccc1	> 100	> 100	> 100	> 100	> 100	> 100	> 100	> 100	–	–
CC(=O)OCC1OC(OCC2OC(N3C(=S)N[C@H]([C@@H](O)[C@H](O)[C@H](O)CO)[C@H]3O)C(OC(C)=O)C(OC(C)=O)C2OC(C)=O)C(OC(C)=O)C(OC(C)=O)C1OC(C)=O (stereo partly drawn)	–	–	> 100	> 100	> 100	> 100	> 100	> 100	> 100	–
O=c1c2cc(-c3ccccc3)cnc2sn1-c1ccc([N+](=O)[O-])cc1	> 100	–	> 100	> 100	> 100	> 100	> 100	–	> 100	> 100
Oc1[nH]c2ccccc2c1N=NC(=S)N1CCCCCC1	–	2.41	2.67	4.15	3.86	1.59	5.72	7.86	3.35	6.8
C=C(C)CC1=C(C(=S)NCCO[Si](C)(C)C(C)(C)C)C(OCC)(OCC)C1=O	> 100	56.9	> 100	–	33.1	37.8	34.4	34.8	67.5	34.4
CC(O)(c1ccccc1)c1nccc2ccccc12 (stereo not drawn)	> 100	> 100	> 100	> 100	> 100	–	–	> 100	> 100	–
C=CCC1NCCC2=C1C(S(=O)(=O)c1ccc(C)cc1)c1ccccc12 (stereo not drawn)	28.6	23.1	30.5	27.8	27.1	–	27.1	32.7	25.5	33.5
CC(=O)c1ccc2c(c1)oc(=O)n2CCN(C)C	> 100	> 100	> 100	–	> 100	> 100	> 100	> 100	> 100	> 100
O=C(NCCO)c1c(O)c2ccccc2[nH]c1=O	> 100	> 100	> 100	> 100	> 100	> 100	–	> 100	> 100	> 100
Cc1ccc(S(=O)(=O)n2cc(-c3cnc(N)c(Br)n3)c3ccccc32)cc1	–	> 100	> 100	49.6	> 100	> 23.3	> 100	> 100	> 24	> 100
FC1CCN(C2(c3cccs3)CCCCC2)CC1	–	> 100	> 100	> 100	> 100	–	> 100	> 100	> 100	> 100
O=c1c2c([nH]c3cc4c(cc13)OCO4)-c1ccccc1CCC2	> 50	> 50	> 50	> 50	> 50	> 50	–	> 50	> 50	> 50
COC(=O)c1ccc(C)cc1C1CN=NC12Cc1cc(C)c(C)cc1C2=O (stereo not drawn)	> 100	> 100	> 100	> 100	> 100	> 100	–	> 100	81.4	99.7
c1ccc(C(=NNc2nc3ccccc3[nH]2)c2ccccn2)nc1	0.257	27.8	> 33.2	1.02	35.4	0.546	> 100	–	> 53.6	3.38
CN(N)C(=O)NCCCl	> 100	> 100	–	> 100	> 100	> 100	> 100	> 100	> 100	> 100
CN(C)CCCNC(=O)c1cc(NC(=O)c2cc(NC(=O)c3cc(NC(=O)CCCn4ccc(CO)c4CO)cn3C)cn2C)cn1C	> 100	> 100	–	–	–	33.6	77	72.4	> 100	> 100
CCC(=N\NC(N)=S)/C(C)=N/O	–	> 100	> 100	> 100	> 100	> 100	> 100	> 100	> 100	> 100
O=C1CCC2=C(CCC2)N1CCc1ccc2c(c1)OCO2	> 100	> 100	–	45.1	> 100	> 100	> 100	> 100	> 100	> 100
COc1ccc(N2C(=O)C3c4[nH]c5ccccc5c4C4CCC(C(C)C)CC4C3C2=O)cc1 (stereo not drawn)	> 100	> 100	> 100	> 100	> 100	–	> 100	> 100	> 100	> 100
c1ccc(C(CCN2CCCC2)c2ccccn2)cc1 (stereo not drawn)	–	> 100	> 100	> 100	> 100	–	> 100	> 100	> 100	> 100
CC(C)(C)OC(=O)NC(CCCCNC(=O)OCc1ccccc1)C(=O)NC(CCCCNC(=O)OCc1ccccc1)C(=O)ON1C(=O)CCC1=O (stereo not drawn)	> 100	–	> 100	> 100	–	–	> 100	> 100	> 100	> 100
C[C@]12CCC(=O)C=C1CC[C@@H]1[C@@H]2C(=O)C[C@@]2(C)[C@H]1CC[C@]2(O)C(=O)CO	> 100	–	> 100	> 100	> 100	> 100	> 100	> 100	–	> 100
Cc1cc(NC2=NCCO2)c2c(c1C)CCCC2	> 100	–	> 100	45.3	31.8	22.6	–	> 100	77.9	> 100
